{
  "source": "patent US12077503B2",
  "about": "“Substituted cyclic amides and their use as herbicides” (FMC CORPORATION, priority 2015, dated 2024)",
  "type_in_all_cases": "in vivo",
  "key": {"[1]": {"system": "Kochia (Kochia scoparia)", "experiment": "Test A preemergence", "summary_of_the_method": "(§1)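 Seeds sprayed preemergence with a directed soil spray, or plants at 2 to 10 cm height and one- to two-leaf stage sprayed postemergence, with test chemicals in a non-phytotoxic solvent mixture containing surfactant, in loam soil–sand blend. Injury rated visually against untreated controls after about 10 d in greenhouse, 0 (no effect) to 100 (complete control).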"}, "[2]": {"system": "barnyardgrass (Echinochloa crus-galli)", "experiment": "Test A preemergence", "summary_of_the_method": "as §1"}, "[3]": {"system": "giant foxtail (Setaria faberii)", "experiment": "Test A preemergence", "summary_of_the_method": "as §1"}, "[4]": {"system": "pigweed (Amaranthus retroflexus)", "experiment": "Test A preemergence"}, "[5]": {"system": "ragweed (common ragweed, Ambrosia elatior)", "experiment": "Test A preemergence", "summary_of_the_method": "as §1"}, "[6]": {"system": "ryegrass, Italian (Italian ryegrass, Lolium multiflorum)", "experiment": "Test A preemergence", "summary_of_the_method": "as §1"}, "[7]": {"system": "Galium (catchweed bedstraw, Galium aparine)", "experiment": "Test A postemergence", "settings": "postemergence; for Plant response rating, Galium: 0 to 100 scale (0 no effect, 100 complete control)", "summary_of_the_method": "as §1"}, "[8]": {"system": "Kochia (Kochia scoparia)", "experiment": "Test A postemergence", "settings": "postemergence; for Plant response rating, Kochia: 0 to 100 scale (0 no effect, 100 complete control)", "summary_of_the_method": "as §1"}, "[9]": {"system": "barnyardgrass (Echinochloa crus-galli)", "experiment": "Test A postemergence", "settings": "postemergence; for Plant response rating, Barnyardgrass: 0 to 100 scale (0 no effect, 100 complete control)", "summary_of_the_method": "as §1"}, "[10]": {"system": "blackgrass (Alopecurus myosuroides)", "experiment": "Test A postemergence", "settings": "postemergence; for Plant response rating, Blackgrass: 0 to 100 scale (0 no effect, 100 complete control)", "summary_of_the_method": "as §1"}, "[11]": {"system": "corn (Zea mays)", "experiment": "Test A postemergence", "settings": "postemergence; for Plant response rating, Corn: 0 to 100 scale (0 no effect, 100 complete control)", "summary_of_the_method": "as §1"}, "[12]": {"system": "giant foxtail (Setaria faberii)", "experiment": "Test A postemergence", "settings": "postemergence; for Plant response rating, Foxtail, Giant: 0 to 100 scale (0 no effect, 100 complete control)", "summary_of_the_method": "as §1"}, "[13]": {"system": "pigweed (Amaranthus retroflexus)", "experiment": "Test A postemergence", "settings": "postemergence; for Plant response rating, Pigweed: 0 to 100 scale (0 no effect, 100 complete control)", "summary_of_the_method": "as §1"}, "[14]": {"system": "ragweed (common ragweed, Ambrosia elatior)", "experiment": "Test A postemergence", "settings": "postemergence; for Plant response rating, Ragweed: 0 to 100 scale (0 no effect, 100 complete control)", "summary_of_the_method": "as §1"}, "[15]": {"system": "ryegrass, Italian (Italian ryegrass, Lolium multiflorum)", "experiment": "Test A postemergence", "settings": "postemergence; for Plant response rating, Ryegrass, Italian: 0 to 100 scale (0 no effect, 100 complete control)", "summary_of_the_method": "as §1"}, "[16]": {"system": "wheat (Triticum aestivum)", "experiment": "Test A postemergence", "settings": "postemergence; for Plant response rating, Wheat: 0 to 100 scale (0 no effect, 100 complete control)", "summary_of_the_method": "as §1"}, "[17]": {"system": "barnyardgrass (Echinochloa crus-galli)", "experiment": "Test B flooded paddy test", "settings": "Flood, 250 g ai/ha", "summary_of_the_method": "(§2)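 Plants at 2-leaf stage flooded to 3 cm above soil, with compounds applied directly to paddy water and that depth maintained. Plants kept in greenhouse 13–15 d. Visual rating versus controls on a 0 (no effect) to 100 (complete control) scale.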"}, "[18]": {"system": "ducksalad (Heteranthera limosa)", "experiment": "Test B flooded paddy test", "settings": "Flood, 250 g ai/ha", "summary_of_the_method": "as §2"}, "[19]": {"system": "rice (Oryra sativa)", "experiment": "Test B flooded paddy test", "settings": "Flood, 250 g ai/ha", "summary_of_the_method": "as §2"}, "[20]": {"system": "sedge, umbrella (small-flower umbrella sedge, Cyperus difformis)", "experiment": "Test B flooded paddy test", "settings": "Flood, 250 g ai/ha", "summary_of_the_method": "as §2"}, "[21]": {"settings": "125 g ai/ha, preemergence, 0 to 100 scale where 0 is no effect and 100 is complete control"}, "[22]": {"settings": "500 g ai/ha, Preemergence, visual injury vs untreated controls after approximately 10 d"}, "[23]": {"settings": "125 g ai/ha, visual injury rating after approximately 10 d"}, "[24]": {"settings": "scale of 0 to 100 where 0 is no effect and 100 is complete control"}, "[25]": {"settings": "125 g ai/ha, Preemergence, visual injury after approximately 10 d, 0 to 100 scale where 0 is no effect and 100 is complete control"}, "[26]": {"settings": "500 g ai/ha, preemergence, 0 to 100 scale, 0 = no effect, 100 = complete control"}, "[27]": {"settings": "125 g ai/ha, visual rating after approx. 10 d"}, "[28]": {"settings": "500 g ai/ha, visual injury, approx. 10 d"}, "[29]": {"settings": "0 to 100 scale where 0 is no effect and 100 is complete control, 13 to 15 d"}},
  "data": [
    {"smiles": "O=C1NC[C@H](c2cccc(C(F)(F)F)c2)[C@H]1C(=O)Nc1ccccc1[N+](=O)[O-]", "note": "[Compound 825]", "values": [
      {"measurement": "Kochia plant response rating", "setting": "[1]; [21]", "result": 20},
      {"measurement": "Kochia plant response rating (0 to 100 scale where 0 is no effect and 100 is complete control)", "setting": "[1]; [22]", "result": 60},
      {"measurement": "Barnyardgrass plant response rating", "setting": "[2]; [21]", "result": 70},
      {"measurement": "Barnyardgrass plant response rating (0 to 100 scale where 0 is no effect and 100 is complete control)", "setting": "[2]; [22]", "result": 90},
      {"measurement": "Foxtail, Giant plant response rating", "setting": "[3]; [21]", "result": 90},
      {"measurement": "Foxtail, Giant plant response rating (0 to 100 scale where 0 is no effect and 100 is complete control)", "setting": "[3]; [22]", "result": 90},
      {"measurement": "Pigweed plant response rating", "setting": "[4]; [21]", "result": 0},
      {"measurement": "Pigweed plant response rating (0 to 100 scale where 0 is no effect and 100 is complete control)", "setting": "[4]; [22]", "result": 30},
      {"measurement": "Ragweed plant response rating", "setting": "[5]; [21]", "result": 20},
      {"measurement": "Ragweed plant response rating (0 to 100 scale where 0 is no effect and 100 is complete control)", "setting": "[5]; [22]", "result": 20},
      {"measurement": "Ryegrass, Italian plant response rating", "setting": "[6]; [21]", "result": 20},
      {"measurement": "Ryegrass, Italian plant response rating (0 to 100 scale where 0 is no effect and 100 is complete control)", "setting": "[6]; [22]", "result": 40},
      {"measurement": "Galium plant response rating (0 to 100 scale, 0 no effect, 100 complete control)", "setting": "[7]; [23]", "result": 30},
      {"measurement": "Kochia plant response rating (0 to 100 scale, 0 no effect, 100 complete control)", "setting": "[8]; [23]", "result": 0},
      {"measurement": "Barnyardgrass plant response rating (0 to 100 scale, 0 no effect, 100 complete control)", "setting": "[9]; [23]", "result": 80},
      {"measurement": "Blackgrass plant response rating (0 to 100 scale, 0 no effect, 100 complete control)", "setting": "[10]; [23]", "result": 40},
      {"measurement": "Corn plant response rating (0 to 100 scale, 0 no effect, 100 complete control)", "setting": "[11]; [23]", "result": 20},
      {"measurement": "Foxtail, Giant plant response rating (0 to 100 scale, 0 no effect, 100 complete control)", "setting": "[12]; [23]", "result": 90},
      {"measurement": "Pigweed plant response rating (0 to 100 scale, 0 no effect, 100 complete control)", "setting": "[13]; [23]", "result": 0},
      {"measurement": "Ragweed plant response rating (0 to 100 scale, 0 no effect, 100 complete control)", "setting": "[14]; [23]", "result": 20},
      {"measurement": "Ryegrass, Italian plant response rating (0 to 100 scale, 0 no effect, 100 complete control)", "setting": "[15]; [23]", "result": 20},
      {"measurement": "Wheat plant response rating (0 to 100 scale, 0 no effect, 100 complete control)", "setting": "[16]; [23]", "result": 40},
      {"measurement": "Barnyardgrass plant response rating", "setting": "[17]; [24]", "result": 0},
      {"measurement": "Ducksalad plant response rating", "setting": "[18]; [24]", "result": 80},
      {"measurement": "Rice plant response rating", "setting": "[19]; [24]", "result": 25},
      {"measurement": "Sedge, Umbrella plant response rating", "setting": "[20]; [24]", "result": 0}
    ]},
    {"smiles": "Cc1ccc(C2CNC(=O)C2C(=O)Nc2ccc(F)cc2F)cc1C(F)(F)F", "note": "(racemic) [Compound 655]", "values": [
      {"measurement": "Plant response rating, Kochia", "setting": "[1]; [25]", "result": 30},
      {"measurement": "Plant response rating, Kochia", "setting": "[1]; [26]", "result": 40},
      {"measurement": "Plant response rating, Barnyardgrass", "setting": "[2]; [25]", "result": 90},
      {"measurement": "Plant response rating, Barnyardgrass", "setting": "[2]; [26]", "result": 90},
      {"measurement": "Plant response rating, Foxtail, Giant", "setting": "[3]; [25]", "result": 90},
      {"measurement": "Plant response rating, Foxtail, Giant", "setting": "[3]; [26]", "result": 90},
      {"measurement": "Plant response rating, Pigweed", "setting": "[4]; [25]", "result": 50},
      {"measurement": "Plant response rating, Pigweed", "setting": "[4]; [26]", "result": 60},
      {"measurement": "Plant response rating, Ragweed", "setting": "[5]; [25]", "result": 0},
      {"measurement": "Plant response rating, Ragweed", "setting": "[5]; [26]", "result": 30},
      {"measurement": "Plant response rating, Ryegrass, Italian", "setting": "[6]; [25]", "result": 40},
      {"measurement": "Plant response rating, Ryegrass, Italian", "setting": "[6]; [26]", "result": 60},
      {"measurement": "Plant response rating, Galium", "setting": "[7]; [27]", "result": 30},
      {"measurement": "Plant response rating, Galium", "setting": "[7]; [28]", "result": 50},
      {"measurement": "Plant response rating, Kochia", "setting": "[8]; [27]", "result": 30},
      {"measurement": "Plant response rating, Kochia", "setting": "[8]; [28]", "result": 40},
      {"measurement": "Plant response rating, Barnyardgrass", "setting": "[9]; [27]", "result": 70},
      {"measurement": "Plant response rating, Barnyardgrass", "setting": "[9]; [28]", "result": 90},
      {"measurement": "Plant response rating, Blackgrass", "setting": "[10]; [27]", "result": 20},
      {"measurement": "Plant response rating, Blackgrass", "setting": "[10]; [28]", "result": 30},
      {"measurement": "Plant response rating, Corn", "setting": "[11]; [27]", "result": 0},
      {"measurement": "Plant response rating, Corn", "setting": "[11]; [28]", "result": 30},
      {"measurement": "Plant response rating, Foxtail, Giant", "setting": "[12]; [27]", "result": 40},
      {"measurement": "Plant response rating, Foxtail, Giant", "setting": "[12]; [28]", "result": 60},
      {"measurement": "Plant response rating, Pigweed", "setting": "[13]; [27]", "result": 0},
      {"measurement": "Plant response rating, Pigweed", "setting": "[13]; [28]", "result": 0},
      {"measurement": "Plant response rating, Ragweed", "setting": "[14]; [27]", "result": 0},
      {"measurement": "Plant response rating, Ragweed", "setting": "[14]; [28]", "result": 0},
      {"measurement": "Plant response rating, Ryegrass, Italian", "setting": "[15]; [27]", "result": 0},
      {"measurement": "Plant response rating, Ryegrass, Italian", "setting": "[15]; [28]", "result": 30},
      {"measurement": "Plant response rating, Wheat", "setting": "[16]; [27]", "result": 0},
      {"measurement": "Plant response rating, Wheat", "setting": "[16]; [28]", "result": 10},
      {"measurement": "Plant response rating, Barnyardgrass", "setting": "[17]; [29]", "result": 20},
      {"measurement": "Plant response rating, Ducksalad", "setting": "[18]; [29]", "result": 100},
      {"measurement": "Plant response rating, Rice", "setting": "[19]; [29]", "result": 30},
      {"measurement": "Plant response rating, Sedge, Umbrella", "setting": "[20]; [29]", "result": 0}
    ]}
  ]
}
